Each structure is given as a SMILES string.

For orientation: EC50 means the concentration needed to bring the measured effect to its halfway point.

This assay has as its target T1, Endoribonuclease toxin MazF (Escherichia coli (strain K12), UniProt P0AE70).
T1 sequence (P0AE70 whole entry): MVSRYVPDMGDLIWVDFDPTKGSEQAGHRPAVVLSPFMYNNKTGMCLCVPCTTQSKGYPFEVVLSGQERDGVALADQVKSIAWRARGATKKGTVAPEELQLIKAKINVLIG
The experiment in a line: fluorescent RNA oligo signal without MazF, dose response, counter-screen for MazEF activator project, biochemical, fluorescence, single-stranded RNase substrate (AID 588502). (A counterscreen serves to expose hits that act by an unwanted route or on another target.)
`CCOc1ccc(N=CCC(=O)c2ccc(OC)cc2)c([N+](=O)[O-])c1` gave an EC50 of 6.29 µM.

`O=C1N=c2ccccc2=C1NNc1ccc(F)cc1` showed an EC50 of more than 99 µM.

Molecule `Cc1ccc(Cl)c2c1=NC(=O)C=2NNc1ccccc1` had an EC50 of 8.15 µM.

For `N#CC(C(=O)c1ccc([N+](=O)[O-])o1)c1nc2ccccc2[nH]1` (stereo unspecified), the EC50 came out at 5.53 µM.

The molecule `Cc1oc(C)c2c(=O)ccc3c(c12)OC(=N)C(C#N)C3c1ccccc1` (stereo unspecified) had an EC50 of more than 99 µM.

On to `CC1CC(=O)C2=C(C1)OC(=N)C(C#N)C2c1coc2ccccc2c1=O` (stereo unspecified), for which the EC50 is more than 99 µM.

Regarding `O=C1N=c2ccccc2=C1NNc1ccccc1F`, the EC50 was 31.7 µM.

In turn, `O=C1Nc2ccc([N+](=O)[O-])cc2C1=NNc1ccc(F)cc1` registered an EC50 of 20.3 µM.

For the molecule `Cc1ccc2nc(N3C(=O)C(=O)C(C(=O)c4ccco4)C3c3cccs3)sc2c1` (stereo unspecified), the EC50 is more than 99 µM.

In turn, `Cc1cc(O)n(-c2ccc(NCc3ccc(Cl)cc3)c([N+](=O)[O-])c2)c1O` [1-{4-[(4-chlorobenzyl)amino]-3-nitrophenyl}-3-methylpyrrolidine-2,5-dione] registered an EC50 of more than 99 µM.

`COc1ccc(Nc2oc3cc(=O)ccc-3cc2C(=O)NCC2CCCO2)c(OC)c1` (stereo unspecified) [2-(2,4-dimethoxyanilino)-7-oxo-N-(2-oxolanylmethyl)-1-benzopyran-3-carboxamide] returned an EC50 of more than 99 µM.

Turning to `CCCCOc1cccc(C2C(C(=O)c3ccc(C)o3)C(=O)C(=O)N2c2nnc(C)s2)c1` (stereo unspecified) [2-(3-butoxyphenyl)-3-(5-methylfuran-2-yl)carbonyl-1-(5-methyl-1,3,4-thiadiazol-2-yl)-4-oxidanyl-2H-pyrrol-5-one], the EC50 amounted to 20.4 µM.

Consider `CCOc1cccc(C2C(C(=O)c3ccc(C)o3)C(=O)C(=O)N2c2nccs2)c1` (stereo unspecified) [2-(3-ethoxyphenyl)-3-(5-methylfuran-2-yl)carbonyl-4-oxidanyl-1-(1,3-thiazol-2-yl)-2H-pyrrol-5-one], for which the EC50 is more than 99 µM.

As for `Cc1[nH]c2ccccc2c1/C=C1\N=C(c2ccc(F)cc2)OC1=O` [2-(4-fluorophenyl)-4-[(2-methyl-1H-indol-3-yl)methylene]-1,3-oxazol-5(4H)-one], the EC50 is 55.9 µM.

Consider `Cc1nnc(N2C(=O)C(=O)C(C(=O)c3ccco3)C2c2ccc(C(C)(C)C)cc2)s1` (stereo unspecified) [2-(4-tert-butylphenyl)-3-(furan-2-carbonyl)-4-hydroxy-1-(5-methyl-1,3,4-thiadiazol-2-yl)-2H-pyrrol-5-one], for which a half-maximal response (EC50) required 19.7 µM.

Consider `O=[N+]([O-])c1ccc(N=NCc2ccccc2)c(F)c1` [2-fluoranyl-4-nitro-N-[(phenylmethylidene)amino]aniline], for which the EC50 came to 27.2 µM.

As to `O=C1C(=O)N(c2nccs2)C(c2ccccc2)C1C(=O)c1cc2ccccc2o1` (stereo unspecified) [3-(1-benzofuran-2-carbonyl)-4-hydroxy-2-phenyl-1-(1,3-thiazol-2-yl)-2H-pyrrol-5-one], the EC50 was more than 99 µM.

For `C=CCOc1cccc(C2C(C(=O)c3ccc(C)o3)C(=O)C(=O)N2c2nccs2)c1` (stereo unspecified) [3-(5-methylfuran-2-yl)carbonyl-4-oxidanyl-2-(3-prop-2-enoxyphenyl)-1-(1,3-thiazol-2-yl)-2H-pyrrol-5-one], the EC50 was more than 99 µM.

As for `CSc1ccc(C2C(C(=O)c3ccco3)C(=O)C(=O)N2c2nnc(SC)s2)cc1` (stereo unspecified) [3-(furan-2-carbonyl)-4-hydroxy-2-(4-methylsulfanylphenyl)-1-(5-methylsulfanyl-1,3,4-thiadiazol-2-yl)-2H-pyrrol-5-one], the EC50 is more than 99 µM.

For `O=C1Nc2ccccc2C1=NNc1ccccc1` [3-(phenylhydrazo)-2-indolone], the midpoint of the response, the EC50, lay at 54.6 µM.

Consider `COc1cccc(C2=Nc3nnnn3C(c3ccc(N(C)C)cc3)C2)c1` (stereo unspecified) [4-[5-(3-methoxyphenyl)-1,7-dihydro-[1,2,3,4]tetrazolo[1,5-a]pyrimidin-7-yl]-N,N-dimethyl-aniline], for which the EC50 was more than 99 µM.

For `N#Cc1ccc(-n2c(O)c3[nH][nH]c(C(=O)c4ccc5ccccc5n4)c-3c2=O)cc1` [4-[(3aS,6aS)-4,6-dioxo-3-[oxo(2-quinolinyl)methyl]-3a,6a-dihydro-1H-pyrrolo[3,4-c]pyrazol-5-yl]benzonitrile], a half-maximal effect (EC50) was put at 0.271 µM.

For `Cc1ccc(N/N=C2/C(=O)Nc3ccc(F)cc32)cc1` [5-fluoro-3-[2-(4-methylphenyl)hydrazono]indolin-2-one], the EC50 was found to be 29.9 µM.

`O=c1cc2oc(O)c3cc(O)c(O)c(O)c3c-2oc1=O` [6,8,9,10-tetrahydroxypyran[3,2-c]isochromene-2,3-quinone] returned a concentration giving a half-maximal response (EC50) of more than 99 µM.

The molecule `COCc1n[nH]c2c1C(c1cc(OC)c(O)c(OC)c1)C(C#N)C(=N)O2` (stereo unspecified) [6-azanyl-4-(3,5-dimethoxy-4-oxidanyl-phenyl)-3-(methoxymethyl)-2,4-dihydropyrano[2,3-c]pyrazole-5-carbonitrile] returned an EC50 of more than 99 µM.

For the molecule `Cn1c(C(C#N)C(=O)COc2ccc3ccccc3c2)nc2ccccc21` (stereo unspecified) [(2E)-2-(3-methyl-1H-benzimidazol-2-ylidene)-4-(2-naphthalenyloxy)-3-oxobutanenitrile], the EC50 is more than 99 µM.

As to `COc1cc2c(cc1OC)C(CC(=O)c1ccc([N+](=O)[O-])c(C)c1)=NCC2` [(2Z)-2-(6,7-dimethoxy-3,4-dihydro-2H-isoquinolin-1-ylidene)-1-(3-methyl-4-nitrophenyl)ethanone], it took 43.8 µM to reach a half-maximal effect (EC50).

For `O=C1N=c2ccccc2=C1NNc1cccc(Cl)c1` [(3E)-1H-indole-2,3-dione 3-[(3-chlorophenyl)hydrazone]], the EC50 is more than 99 µM.

For the molecule `CCCCN1C(=O)C(=NNc2ccccc2O)c2ccccc21` [(3Z)-1-butyl-3-[(2-hydroxyphenyl)hydrazinylidene]indol-2-one], a half-maximal response (EC50) required 69.5 µM.

`CCCN1C(=O)C(=NNc2ccc3ccccc3n2)c2ccccc21` [(3Z)-1-propyl-3-(2-quinolinylhydrazinylidene)-2-indolone] came in with an EC50 of more than 99 µM.

The molecule `Cc1ccc(NN=C2C(=O)N(CN3CCOCC3)c3ccccc32)cc1` [(3Z)-3-[(4-methylphenyl)hydrazinylidene]-1-(4-morpholinylmethyl)-2-indolone] came in with an EC50 of 50.5 µM.

In turn, `O=C(c1ccc2ccccc2n1)c1[nH][nH]c2c(O)n(-c3cccc(F)c3)c(=O)c1-2` [(3aS,6aS)-5-(3-fluorophenyl)-3-[oxo(2-quinolinyl)methyl]-3a,6a-dihydro-1H-pyrrolo[3,4-c]pyrazole-4,6-dione] returned an EC50 of more than 99 µM.

For the molecule `N=C(N)C1=CC(=O)/C(=C/C=c2ccc(=C(N)N)cc2)C=C1` [(4E)-4-[2-[4-[bis(azanyl)methylidene]cyclohexa-2,5-dien-1-ylidene]ethylidene]-3-oxidanylidene-cyclohexa-1,5-diene-1-carboximidamide;2-oxidanylethanesulfonic acid], the EC50 was more than 99 µM.

The molecule `O=C1NC(=O)N(C2CCCCC2)C(=O)C1=CCC=Nc1ccccc1` [(5Z)-5-[(E)-3-anilinoprop-2-enylidene]-1-cyclohexyl-1,3-diazinane-2,4,6-trione] showed an EC50 of 9.49 µM.

In the case of `Clc1cccc(C(Cc2nc3ccccc3[nH]2)N=Nc2ccccc2)c1` (stereo unspecified) [MLS000374846], the EC50 was more than 99 µM.

`COc1ccc(CN=Nc2ccc([N+](=O)[O-])cc2S(=O)(=O)N2CCN(C)CC2)cc1` [MLS000553953] gave an EC50 of 8.43 µM.

In turn, `Cc1cccc(NNC2=c3cc(F)ccc3=NC2=O)c1` [MLS000673317] displayed an EC50 of more than 99 µM.

In turn, `O=c1[nH]c(N=NCc2ccc(F)cc2)nc2ccccc12` [MLS000700887] gave an EC50 of more than 99 µM.

Molecule `CCC(N=Nc1cccc(C)c1)c1cnnc(SC)n1` (stereo unspecified) [MLS000705906] returned an EC50 of more than 99 µM.

The molecule `C=c1[nH]n(-c2ccccc2)c(=O)c1=Cc1cc(C)n(C2CC2)c1C` [MLS001018445] yielded an EC50 of more than 99 µM.

In the case of `CCSc1nnc(N2C(=O)C(=O)C(C(=O)c3ccco3)C2c2cccc(OC)c2)s1` (stereo unspecified) [MLS001140620], the EC50 is more than 99 µM.

On to `O=[N+]([O-])c1cc/c(=N\c2ccccc2O)c2no[nH]c1-2` [MLS001206694], for which the EC50 was more than 99 µM.

Turning to `Oc1ccc2ccccc2c1C=Nn1c(O)csc1=S` [MLS002707175], the EC50 was more than 99 µM.

In the case of `O=[N+]([O-])c1ccc(N=NCc2ccc3c(c2)OCO3)nc1` [N-(1,3-benzodioxol-5-ylmethylideneamino)-5-nitro-pyridin-2-amine], the EC50 was more than 99 µM.

`O=[N+]([O-])c1ccc(N=NCc2cccc3ccccc23)nc1` [N-(naphthalen-1-ylmethylideneamino)-5-nitro-pyridin-2-amine] had an EC50 of 45.4 µM.

In turn, `CCN(CC)c1ccc(CN=Nc2ccc([N+](=O)[O-])cn2)cc1` [N-[[4-(diethylamino)phenyl]methylideneamino]-5-nitro-pyridin-2-amine] returned an EC50 of 70.2 µM.

Turning to `Cc1ccc(C2=Nc3nnnn3C(c3ccc(N(C)C)cc3)C2)cc1` (stereo unspecified) [SMR000092467], the EC50 is more than 99 µM.

As for `COc1ccc(C=C2CCCC(C(=O)C(F)(F)F)C2=O)cc1` (stereo unspecified) [SMR000142699], the EC50 came out at 33.8 µM.

Turning to `Cc1[nH]c2ccccc2c1/C=C1\N=C(c2ccc(C(F)(F)F)cc2)OC1=O` [SMR000152363], the EC50 is more than 99 µM.

Consider `O=C(c1ccc2ccccc2n1)c1[nH][nH]c2c(O)n(-c3cccc(C(F)(F)F)c3)c(=O)c1-2` [SMR000212847], for which the EC50 is more than 99 µM.

Consider `Cc1ccc(S(=O)(=O)N[N-][C+]2CCC(C(C)(C)C)CC2)cc1[N+](=O)[O-]` [SMR000241764], for which the EC50 was more than 99 µM.

Regarding `COc1ccc(N=CCC(=O)c2ccc(C)cc2)cc1OC` [SMR000269732], it took 25 µM to reach a half-maximal effect (EC50).

On to `COc1cc(C2c3c(-c4cccs4)n[nH]c3OC(=N)C2C#N)cc(OC)c1O` (stereo unspecified) [SMR000275523], for which the response was half-maximal at 13.3 µM (EC50).

For the molecule `CC1(C)CC(=O)C(N=Nc2cc3c(cc2[N+](=O)[O-])OCCO3)C(=O)C1` [SMR000348183], the EC50 worked out at 29.6 µM.

With `O=C1N=c2ccc(Br)cc2=C1NNc1ccc(F)cc1` [SMR000564049], the EC50 stood at 45.8 µM.

`CSc1nnc(N2C(=O)C(=O)C(C(=O)c3ccc(C)o3)C2c2ccc(C)cc2)s1` (stereo unspecified) [SMR000650392] returned an EC50 of more than 99 µM.

The values are drawn from BindingDB's records for doi:10.7270/Q2TB15DB (Burnham Center For Chemical Genomics, 2011).
